The numbers were not newly measured in US20260218136A1, “R[…], COMPOSITIONS, AND METHODS OF USE” (priority 2022, published 2026), which cites them from elsewhere.

For the data set the following is noted: target and test not given; stated in the description of the rapalog bridging factor.

Regarding `CO[C@H]1[C@@H](O)[C@H](C)C[C@H](C)/C=C/C=C/C=C(\C)[C@@H](c2c[nH]c3c(C)cccc23)C[C@@H]2CC[C@@H](C)[C@@](O)(O2)C(=O)C(=O)N2CCCC[C@H]2C(=O)O[C@H]([C@H](C)C[C@@H]2CC[C@@H](O)[C@H](OC)C2)C[C@H](O)[C@H](C)/C=C(\C)[C@H]1O` [AP21967, C-16-(S)-7-methylindolerapamycin], the IC50 (as a rule, the concentration needed to halve the response being measured) was 10 nM.
